From US7919671B2, “Method for testing a compound for a therapeutic effect and a diagnostic method” (Chempath Oy, priority 2004, dated 2011)

Assays:
human PAP = target: T1, human PAP (Homo sapiens, UniProt P15309); assay: protein overlay assay of PAP binding to immobilized phospholipids (PIP Strips); details: 100 pmole lipid per spot on nitrocellulose strip; 10 μg/ml or 50 μg/ml human PAP, overnight at +4° C.
T1 sequence (P15309 33-386): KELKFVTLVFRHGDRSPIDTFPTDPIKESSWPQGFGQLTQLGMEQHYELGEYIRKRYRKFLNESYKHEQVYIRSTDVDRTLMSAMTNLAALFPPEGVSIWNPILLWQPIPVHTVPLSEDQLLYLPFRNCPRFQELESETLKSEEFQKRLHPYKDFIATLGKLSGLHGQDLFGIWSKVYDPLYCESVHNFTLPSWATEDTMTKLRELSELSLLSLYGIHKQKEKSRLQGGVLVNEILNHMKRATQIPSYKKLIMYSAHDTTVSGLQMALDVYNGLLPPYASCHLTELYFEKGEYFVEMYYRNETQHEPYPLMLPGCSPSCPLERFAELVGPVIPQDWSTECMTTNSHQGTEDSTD
Procedure: (D) The phospholipid binding properties of PAP. Nitrocellulose-immobilized phospholipids at 100 pmole per spot. The lipids, indicated by dashed circles, are: 1. lysophosphatidic acid, 2. lysophosphocholine, 3. PI; 4. PI(3)P; 5. PI(4)P; 6. PI(5)P; 7. phosphatidyletanolamine; 8. phosphatidylcholine; 9. spingosine-1-phosphate; 10. PI(3,4)P2; 11. PI(3,5)P2; 12. PI(4,5)P2; 13. PI(3,4,5)P3; 14. phosphatidic acid; 15. phosphatidylserine; 16. blank. The strip was incubated with human PAP at concentration 10 μg/ml.
The interaction between PAP and PI lipids was investigated using protein overlay assay.
The binding of human PAP to phospholipids was screened using PIP Strips™ (Echelon Bioscience). 100 pmole of lysophosphatidic acid, lysophosphocholine, PI, PI(3)P, PI(4)P, PI(5)P, phosphatidyletanolamine, phosphatidylcholine, sphingosine-1-phosphate, PI(3,4)P2, PI(3,5)P2, PI(4,5)P2, PI(3,4,5)P3, phosphatidic acid, and phosphatidylserine was immobilized on a nitrocellulose strip. The strip was incubated with 10 μg/ml or 50 μg/ml human PAP in 4% non-fat dry milk (Valio) in TBS-T overnight at +4° C. The bound PAP was detected using polyclonal PAP antibody produced by us (Vihko et al., 1978, Clin. Chem. 24, 1915-1919), alkalinephosphatase conjugated secondary antibody (Sigma), and the NBT/BCIP color reaction assay (Promega).

[1] = target: T2, PAP purified from human spermatic fluid (Homo sapiens, UniProt P15309); assay: malachite green assay of the PI(3)P phosphatase activity of PAP; type: biochemical; details: 50 mM MES buffer, pH 6.5, 37° C.
T2 construct: purified from human spermatic fluid as previously described; from tissue; host or cells: human spermatic (seminal) fluid
T2 sequence (P15309 33-386): T1 sequence (P15309 33-386)
Procedure: (E) PI(3)P phosphatase activity of PAP. Phosphatase assays containing 0.01 μg/μl PAP with varying amounts of PI(3)P or buffer were incubated for 5 min at 37° C. and free phosphate was measured by malachite green assay. Initial velocities were calculated from these time courses and plotted against the respective substrate concentration.
To confirm that PAP hydrolyses PI(3)P the lipid phosphatase activity of PAP towards PI(3)P was studied. […] Being sigmoidal, the kinetic curve was inconsistent with Michaelis-Menten kinetics.
A malachite green assay (BIOMOL GREEN™, BIOMOL Research Laboratories, Inc.) adapted to a 96-well format was used to measure the released free-phosphate from PI(3)P (Echelon Bioscience Inc.). Briefly, the reaction (total volume of 25 μl) containing 50 mM MES buffer, pH 6.5 and an indicated amount of PI(3)P, was initiated by adding the PAP (0.25 μg per reaction) purified from human spermatic fluid as previously described (specific activity of the enzyme 397 μmol min^−1 mg^−1) (Vihko et al. 1978, Clin. Chem. 24, 1915-1919). After incubation at 37° C. for 2 and 5 min the reaction was terminated by adding 100 μl of BIOMOL GREEN reagent. The green color was allowed to develop for 20 min at room temperature and absorbance was measured at 650 nm. The phosphate released was quantified by comparing to inorganic phosphate standards. […]

Compound | binding of PAP to the lipid (human PAP) | lipid phosphatase activity of PAP towards the lipid (use as a substrate) ([1]; 0.25 μg PAP per reaction, 2 and 5 min) | shape of the kinetic curve (initial velocity against substrate concentration) ([1]; inconsistent with Michaelis-Menten kinetics)
CCCCCCCCCCCCC/C=C/[C@@H](O)[C@@H](N)COP(=O)(O)O [sphingosine-1-phosphate] | no affinity | – | –
PI(3,4)P2 | no affinity | – | –
PI(3,4,5)P3 | no affinity | – | –
PI(3,5)P2 | no affinity | – | –
Phosphatidylinositol [PI] | no affinity | – | –
lysophosphocholine | no affinity | – | –
phosphatidic acid | no affinity | – | –
phosphatidylcholine | no affinity | – | –
phosphatidylinositol 4-phosphate [PI(4)P] | no affinity | – | –
phosphatidylserine | no affinity | – | –

Further lines, results first:

binding of PAP to the lipid (human PAP) | lipid phosphatase activity of PAP towards the lipid (use as a substrate) ([1]; 0.25 μg PAP per reaction, 2 and 5 min) | shape of the kinetic curve (initial velocity against substrate concentration) ([1]; inconsistent with Michaelis-Menten kinetics) | Compound
binds strongly | utilizes PI(3)P as a substrate | sigmoidal | CCCCCCCCCCCCCCCC(=O)OC[C@H](COP(=O)(O)O[C@@H]1[C@H](O)[C@H](OP(=O)(O)O)[C@@H](O)[C@H](O)[C@H]1O)OC(=O)CCCCCCCCCCCCCCC [PI(3)P, phosphatidylinositol 3-phosphate]
no affinity | – | – | PI(4,5)P2
no affinity | – | – | PI(5)P
no affinity | – | – | lysophosphatidic acid
no affinity | – | – | phosphatidylethanolamine
